Data on 2 compounds can be found in patent US4657898A, “N^6 -substituted adenosines and method of use” (Warner-Lambert Company, priority 1985, dated 1987).

Data set [1] is described as follows: Antihypertensive evaluation (AHP3), aortic blood pressure and heart rate in conscious rats. The data set is classed as in vivo. As to conditions: conscious rat. From the text:
[…] EVALUATION (AHP3)
This test procedure is described in the following paragraphs.
A Method for the Direct Monitoring of Aortic Blood Pressure and Heart Rate from Conscious Rats
The continuous monitoring of pulsatile blood pressure (BP) from unrestrained conscious rats surgically equipped with polyethylene cannulas was accomplished by means of a computer assisted data capture scheme (CADCS). The basic elements of the methodology are the cannulation procedure and the CADCS.
Cannulation Procedure: Rats were anesthetized with Telazol (1:1 tiletamine HCl and zolazepam HCl); 20-40 mg/kg IM and the descending aorta exposed via a midline incision. Cannulas fabricated from polyethylene tubing were inserted into the aorta via an undersized puncture hole below the renal arteries. The puncture hole was made by a 23G disposable needle with a section of the aorta clamped off above and below the puncture site. The cannulas, consisting of a PE100 (0.86 mm ID) body and a PE50 (0.5mm ID) tip, were attached to a trocar, inserted through the psoas muscle, and passed subcutaneously along the midline of the back and externalized between the ears. The cannulas were anchored to the psoas muscle and between the scalulae (3-0 green braided suture). The midline incision was closed in two steps (muscle first, skin second) using continuous over-and over sutures (4-0 chronic). Each rat was then given penicillin 30,000 units subcutaneously (Penicillin G Procaine Sterile Suspension).
The rats were fitted with a harness-spring-swivel assembly designed to protect the cannula and to provide the rat relative freedom of movement. The harnesses were fabricated from nylon hook and loop tape cemented to a metal plate to which spring wires (18-8 stainless steel), were attached to brass swivels. Each polyethylene cannula was channeled through a spring and connected through a swivel to a pressure transducer (Model P23Gb; Statham Instruments; Hato Rey, Puerto Rico) and an infusion pump (Sage model 234-7; Orion Research, Cambridge, MA) by means of PE100 tubing. While on test, each rat received a continuous slow infusion of heparinized saline solution (approximately […] or 40 units of heparin per 24 hour period) to prevent clot formation. Additional "flushes" of the cannula with heparinized saline were carried out when the aortic pulse pressure (systolic minus diastolic) was less than 25 mm Hg.
CADCS: The pulsatile blood pressure and heart rate of each of 32 rats was monitored every minute by means of two in-laboratory microcomputers communicating directly with a data concentrator computer. The data were first stored on the data concentrator disk and then transferred to a magnetic tape for analysis and report generation by the main research computer. The overall scheme involved modulating the primary signal from the pressure transducer, generating the primary data set of the one-minute values for systolic, diastolic, and mean blood pressures and heart rate by the in-lab microcomputer and the storage, analysis, and report generation by the main reserach computer.
The transducers were connected to analog signal conditioning modules. The modules provided a regulated excitation voltage for the transducers, amplification as required to interface the microprocessors and an active low pass filter to compensate for the pressure wave form distortion produced by the flexible, fluid filled, narrow cannula. The distortion was 22-26 Hz and this provided a reliable estimate of both systolic and diastolic blood pressure.
The microcomputers (one for each of two groups of 16 rats) were connected to the input components through the module interface units, an analog-to-digital converter for the pressure wave form signal and the digital inputs for the dose and event marker switches. The microcomputer controlled the sequential acquisition of data from the modular interface units through an internal synchronous time-of-day clock/time base generator. […]

A short description of data set [2]: Mouse Activity and Screen Test Procedure (MAST): screen test failure (ST). Conditions: lowest dose at which an A rating is achieved, screen test; i.p., mouse. The protocol: Nine unfasted Swiss-Webster male mice weighing 20-30 g are equally divided into three groups for each drug dose to be tested. That is, data for each dose level was generated by three separate groups of three mice each.
A minimum of three dose levels (10, 30, and 100 mg/kg) are tested for each drug. Treatments are administered intraperitoneally one hour prior to testing. All dosages are calculated as parent compound and given in volumes of 10 ml/kg. Compounds are dissolved or suspended in 0.2% Methocel. Control animals are injected with Methocel.
Testing: A two part testing procedure is started one hour postinjection. First, the screen test (ST) is performed (see Pharmac. Biochem. Behav. 6, 351-353, 1977). Briefly this test consists of placing mice on individual wire screens which are then rotated 180 degrees at the start of a 60 second observation period. The number of mice falling off the inverted screen is recorded.
Data: The data obtained from the screen test are expressed as percent of mice falling off the screen. Data derived from locomotor activity of drug treated mice are compared to the activity of vehicle treated animals and are expressed as percent inhibition of spontaneous locomotion. All percentages reported for inhibition of locomotion (LI) are based upon data accumulated for one hour. Both phases of testing are graded: A=60-100%; C=31-59%; and N=0-30%. An overall dose rating is obtained by the following criteria:
LAD refers to the lowest dose at which an A rating is achieved. […] The compounds are identified in the Examples.

Data set [3] is described as follows: Mouse Activity and Screen Test Procedure (MAST): inhibition of locomotion (LI). The data set is classed as in vivo, mouse (Swiss-Webster). Here is the method:
Treatments are administered intraperitoneally one hour prior to testing. […] Compounds are dissolved or suspended in 0.2% Methocel. Control animals are injected with Methocel.
Immediately following the screen test, the final phase of testing is initiated by placing each group of three mice in one actophotometer (Life Sciences, 22, 1067-1076, 1978). The actophotometer consists of a cylindrical chamber whose center is occupied by another cylinder which contains the illumination for six photocells located on the perimeter of the chamber. Six light-beam interruptions equal one count. Locomotor activity is recorded by computer at ten minute intervals for 60 minutes.
The compounds are identified in the Examples.

In data set [4] the target is T1, adenosine A1 receptor (Rattus norvegicus, UniProt P25099).
T1 construct: Whole brain minus cerebellum and brainstem from male Long Evans rats; from tissue; host or cells: rat whole brain minus cerebellum and brainstem, membranes (male Long Evans)
T1 sequence (P25099 1-326): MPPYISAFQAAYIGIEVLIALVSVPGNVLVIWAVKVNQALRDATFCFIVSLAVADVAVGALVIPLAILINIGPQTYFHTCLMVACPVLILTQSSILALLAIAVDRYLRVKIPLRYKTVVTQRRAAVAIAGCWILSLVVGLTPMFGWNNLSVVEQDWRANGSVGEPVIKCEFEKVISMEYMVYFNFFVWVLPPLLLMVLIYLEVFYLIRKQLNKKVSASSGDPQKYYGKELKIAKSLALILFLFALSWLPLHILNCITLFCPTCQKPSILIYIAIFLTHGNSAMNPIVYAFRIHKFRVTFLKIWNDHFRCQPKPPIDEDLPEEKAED
The data set can be described thus: Adenosine Receptor Binding--A1 Receptor Affinity (RBA1), [3H]-CHA. More on the design: species or system rat (male Long Evans). Here is the method: Adenosine Receptor Binding--A1 Receptor Affinity (RBA1)
Whole brain minus cerebellum and brainstem from male Long Evans rats (150-200 g) was homogenized in 30 volumes of ice-cold 0.05M Tris-HCl buffer pH 7.7 using a Brinkman Polytron PT-10, (setting number 6 for 20 seconds) and centrifuged for ten minutes at 20,000 xg (Sorvall RC-2), 4° C. The supernatant was discarded, and the pellet was resuspended and centrifuged as before. The pellet was resuspended in 20 ml Tris-HCl buffer containing two International Units/ml of adenosine deaminase (Sigma type III from calf intestinal mucosa), incubated at 37° C. for 30 minutes, then subsequently at 0° C. for ten minutes. […]
Tissue homogenate (10 mg/ml) was incubated in 0.05M Tris-HCl buffer pH 7.7 containing 1.0 nM [^3 H]-N^6 -cyclohexyladenosine (^3 H]-CHA) with or without test agents in triplicate for one hour at 25° C. […] The radio-labeled ligand retained on the filter was measured by liquid scintillation spectrophotometry after shaking the filters for one hour or longer on a mechanical shaker in 10 ml of Beckman Ready-Solv HP scintillation cocktail.
Nonspecific binding was defined as the binding which occurred in the presence of 1 mM theophylline. […] The Scatchard plot was calculated by linear regression of the line obtained by plotting the amount of radioligand bound [formula] […]

For data set [5], the target named is T2, adenosine A2 receptor (Rattus norvegicus, UniProt P30543).
T2 construct: 5 mg original tissue weight of rat weight of rat striatal membranes; tissue Pel-Freez (Rogers, Ark.); host or cells: rat striatum, membranes (Sprague-Dawley; Long-Evans from Blue Spruce Farms gave essentially identical results)
T2 sequence (P30543 whole entry): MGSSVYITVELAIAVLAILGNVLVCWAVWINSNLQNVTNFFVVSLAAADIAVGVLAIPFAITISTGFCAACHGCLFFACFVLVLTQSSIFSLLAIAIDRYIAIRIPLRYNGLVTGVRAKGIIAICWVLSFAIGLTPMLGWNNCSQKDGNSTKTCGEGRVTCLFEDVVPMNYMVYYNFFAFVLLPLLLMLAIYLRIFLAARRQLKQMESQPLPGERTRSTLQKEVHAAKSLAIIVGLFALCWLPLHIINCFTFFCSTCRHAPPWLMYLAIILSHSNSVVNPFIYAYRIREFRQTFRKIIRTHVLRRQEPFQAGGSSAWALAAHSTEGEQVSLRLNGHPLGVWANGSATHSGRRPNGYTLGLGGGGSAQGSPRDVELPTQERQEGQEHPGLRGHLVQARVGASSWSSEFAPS
In words: Adenosine Receptor Binding--A2 Receptor Affinity (RBA2), [3H]NECA. More on the design: species or system rat (Sprague-Dawley or Long-Evans, striatum). The protocol:
Adenosine Receptor Binding--A2 Receptor Affinity (RBA2)
Brains from 200-500 g mixed sex Sprague-Dawley rats were purchased from Pel-Freez (Rogers, Ark.). […] Brains were thawed and then kept on ice while the striata were dissected out. Striata were disrupted in 10 vol of ice-cold 50 mM Tris.HCl (pH 7.7 at 25° C., pH 8.26 at 5° C.) (Tris) for 30 seconds in a Polytron PT-10 (Brinkmann) at setting 5. The suspension was centrifuged at 50,000 xg for ten minutes, the supernatant discarded, the pellet resuspended in 10 vol ice-cold Tris as above, recentrifuged, resuspended at 1 g/5 ml, and stored in plastic vials at -70° C. […] When needed, tissue was thawed at room temperature, disrupted in a Polytron, and kept on ice until used. […]
Incubations were terminated by filtration through 2.4 cm GF/B filters under reduced pressure. […] Filters were put in scintillation vials, 8 ml of Formula 947 scintillation fluid added, and the vials left overnight, shaken, and counted in a liquid scintillation counter at 40% efficiency.
The IC50 was calculated by weighted nonlinear least squares curve-fitting to the mass-action equation. […]
Weighting factors were calculated under the assumption that the standard deviation was proportional to the predicted value of Y. Nonspecific binding was treated as a very large (infinite) concentration of drug in the computer analysis.

Take `OC[C@H]1O[C@@H](n2cnc3c(NCC(c4ccccc4)c4ccccc4)ncnc32)[C@H](O)[C@@H]1O` [Example 1, N^6-(2,2-Diphenylethyl)adenosine]: the “HR.uparw. (change in heart rate)” value in data set [1] (1 mg/kg), in data set [1] (3 mg/kg), in data set [1] (10 mg/kg) and in data set [1] (30 mg/kg) was below 20% each time. The “Mμ.c..dwnarw. (change in MAP)” value stood at 16% in data set [1] (1 mg/kg), 20% in data set [1] (3 mg/kg), 20% in data set [1] (10 mg/kg) and 35% in data set [1] (30 mg/kg). The “MAST ST LAD” value in data set [2] was above 100 mg/kg. The “Inhibition of mouse locomotor activity” value in data set [3] (10 mg/kg i.p.) stood at 92%; in data set [3] (30 mg/kg i.p.), 93%; in data set [3] (100 mg/kg i.p.) it was 94%.

With `O=[N+]([O-])c1ccc(C(CNc2ncnc3c2ncn3[C@@H]2O[C@H](CO)[C@@H](O)[C@H]2O)c2ccc([N+](=O)[O-])cc2)cc1` [Example 20], the IC50 (in general, the concentration that inhibits the measured activity by half) in data set [4] was 229 nM; in data set [5], 559 nM. In data set [2], the “MAST ST LAD” value is above 100 mg/kg.
